What follows are molecules tested against Recombinant human cathepsin S (CatS) (Homo sapiens, UniProt P25774) (assay: Recombinant human cathepsin S (CatS) inhibition assay, fluorogenic substrate Z-Valine-Valine-Arginine-AMC). Settings: not given.
Chain of Recombinant human cathepsin S (CatS) (P25774 115-331): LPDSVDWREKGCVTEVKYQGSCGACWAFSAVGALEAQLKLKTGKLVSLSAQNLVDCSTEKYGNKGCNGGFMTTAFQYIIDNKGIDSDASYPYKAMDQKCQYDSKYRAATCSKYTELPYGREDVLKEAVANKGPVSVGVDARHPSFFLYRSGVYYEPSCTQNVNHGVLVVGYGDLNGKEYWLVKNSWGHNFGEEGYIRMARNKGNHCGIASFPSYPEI
Molecule COC(=O)[C@H](NCc1ccc(C#Cc2cc(-c3nn(CCCN4CCOCC4)c4c3CN(S(C)(=O)=O)CC4)ccc2Cl)cc1)c1ccccc1 [Example 211, Methyl (2R)-({[4-({2-chloro-5-[5-(methylsulfonyl)-1-(3-morpholin-4-ylpropyl)-4,5,6,7-tetrahydro-1H-pyrazolo[4,3-c]pyridin-3-yl]phenyl}ethynyl)phenyl]methyl}amino)(phenyl)ethanoate] has an IC50 of 110 nM. With C[C@H]1COCCN1CCCn1nc(-c2ccc(Cl)c(C#Cc3ccc(Cl)c(COC4CCN(C(=O)OC(C)(C)C)C4)c3)c2)c2c1CCN(C(=O)C(N)=O)C2 (stereo partly drawn) [Example 559, tert-Butyl 3-[(5-{[5-(5-[amino(oxo)acetyl]-1-{3-[(3S)-3-methylmorpholin-4-yl]propyl}-4,5,6,7-tetrahydro-1H-pyrazolo[4,3-c]pyridin-3-yl)-2-chlorophenyl]ethynyl}-2-chlorobenzyl)oxy]pyrrolidine-1-carboxylate] the IC50 was 100 nM. In the case of CCOC(=O)C1CCN(CCCn2nc(-c3ccc(Cl)c(C#Cc4ccc(CNCc5ccc(Cl)cc5)cc4)c3)c3c2CCN(S(C)(=O)=O)C3)CC1 [Example 334, Ethyl 1-{3-[3-(4-chloro-3-{[4-({[(4-chlorophenyl)methyl]amino}methyl)phenyl]ethynyl}phenyl)-5-(methylsulfonyl)-4,5,6,7-tetrahydro-1H-pyrazolo[4,3-c]pyridin-1-yl]propyl}piperidine-4-carboxylate], the IC50 is reported as 30 nM. CS(=O)(=O)N1CCc2c(c(-c3ccc(Cl)c(CCCCN4CCCC4)c3)nn2CCCN2CCC(N3CCCC3=O)CC2)C1 [Example 109, 1-[1-(3-{3-[4-Chloro-3-(4-pyrrolidin-1-yl-butyl)-phenyl]-5-methanesulfonyl-4,5,6,7-tetrahydro-pyrazolo[4,3-c]pyridin-1-yl}-propyl)-piperidin-4-yl]-pyrrolidin-2-one] showed an IC50 of 2270 nM. COC(=O)C1CCN(CC(O)Cn2nc(-c3ccc(C(F)(F)F)c(C#Cc4ccc(Cl)cc4)c3)c3c2CCN(S(C)(=O)=O)C3)CC1 (centres unmarked) [Example 117, 1-(3-{3-[3-(4-Chloro-phenylethynyl)-4-trifluoromethyl-phenyl]-5-methanesulfonyl-4,5,6,7-tetrahydro-pyrazolo[4,3-c]pyridin-1-yl}-2-hydroxy-propyl)-piperidine-4-carboxylic acid methyl ester] was tested, and the IC50 was 40 nM. With NC(=O)N1CCc2c(c(-c3ccc(Cl)c(CCc4ccc(CNCc5ccc(Cl)cc5)cc4)c3)nn2CCCN2CCOCC2)C1 [Example 476, 3-(4-Chloro-3-{2-[4-({[(4-chlorophenyl)methyl]amino}methyl)phenyl]ethyl}phenyl)-1-(3-morpholin-4-ylpropyl)-1,4,6,7-tetrahydro-5H-pyrazolo[4,3-c]pyridine-5-carboxamide] the IC50 was 120 nM. With C[C@H]1COCCN1CCCn1nc(-c2ccc(Cl)c(C#Cc3ccc(Cl)c(CNCCO)c3)c2)c2c1CCN(C(=O)C(N)=O)C2 [Example 295, 2-(3-{4-Chloro-3-[(4-chloro-3-{[(2-hydroxyethyl)amino]methyl}phenyl)ethynyl]phenyl}-1-{3-[(3S)-3-methylmorpholin-4-yl]propyl}-1,4,6,7-tetrahydro-5H-pyrazolo[4,3-c]pyridin-5-yl)-2-oxoacetamide] the IC50 was 30 nM. NC(=O)N1CCc2c(c(-c3ccc(Cl)c(C#Cc4ccc(CNCc5ccc(Cl)cc5)cc4)c3)nn2CCCN2CCOCC2)C1 [Example 151, 3-(4-Chloro-3-{[4-({[(4-chlorophenyl)methyl]amino}methyl)phenyl]ethynyl}phenyl)-1-(3-morpholin-4-ylpropyl)-1,4,6,7-tetrahydro-5H-pyrazolo[4,3-c]pyridine-5-carboxamide] showed an IC50 of 90 nM. For COC(=O)C(=O)N1CCc2c(c(-c3ccc(Cl)c(C#Cc4ccc(Cl)cc4)c3)nn2CCCN2CCOCC2)C1 [Example 136, [3-[4-Chloro-3-(4-chloro-phenylethynyl)-phenyl]-1-(3-morpholin-4-yl-propyl)-1,4,6,7-tetrahydro-pyrazolo[4,3-c]pyridin-5-yl]-oxo-acetic acid methyl ester], the IC50 was 50 nM. For COC(=O)Cc1ccc(C#Cc2cc(-c3nn(CCCN4CCOCC4)c4c3CN(S(C)(=O)=O)CC4)ccc2Cl)cc1 [Example 10, (4-{2-Chloro-5-[5-methanesulfonyl-1-(3-morpholin-4-yl-propyl)-4,5,6,7-tetrahydro-1H-pyrazolo[4,3-c]pyridin-3-yl]-phenylethynyl}-phenyl)-acetic acid methyl ester], the IC50 was 420 nM. CS(=O)(=O)N1CCc2c(c(-c3ccc(Cl)c(CCCN4CCCCCC4)c3)nn2CCCN2CCC(N3CCCC3=O)CC2)C1 [Example 107, 1-[1-(3-{3-[3-(3-Azepan-1-yl-propyl)-4-chloro-phenyl]-5-methanesulfonyl-4,5,6,7-tetrahydro-pyrazolo[4,3-c]pyridin-1-yl}-propyl)-piperidin-4-yl]-pyrrolidin-2-one] was tested, and the IC50 was 500 nM. For COc1ccc(C#Cc2cc(-c3nn(CCCN4CCOCC4)c4c3CN(S(C)(=O)=O)CC4)ccc2Cl)cc1CNCc1ccccc1 [Example 540, 1-[5-({2-Chloro-5-[5-(methylsulfonyl)-1-(3-morpholin-4-ylpropyl)-4,5,6,7-tetrahydro-1H-pyrazolo[4,3-c]pyridin-3-yl]phenyl}ethynyl)-2-(methyloxy)phenyl]-N-(phenylmethyl)methanamine], the IC50 was 140 nM.

Same assay, conditions: CatS IC50
Work on C[C@H]1COCCN1CCCn1nc(-c2ccc(Cl)c(C#Cc3ccc(CNCc4ccsc4)cc3)c2)c2c1CCN(S(C)(=O)=O)C2 [Example 434, 1-[4-({2-Chloro-5-[1-{3-[(3S)-3-methylmorpholin-4-yl]propyl}-5-(methylsulfonyl)-4,5,6,7-tetrahydro-1H-pyrazolo[4,3-c]pyridin-3-yl]phenyl}ethynyl)phenyl]-N-(3-thienylmethyl)methanamine] yielded an IC50 of 200 nM. With CS(=O)(=O)N1CCc2c(c(-c3ccc(Cl)c(C#Cc4ccc5c(c4)CCN(C4CC4)C5)c3)nn2CCCN2CCOCC2)C1 [Example 284, 6-({2-Chloro-5-[5-(methylsulfonyl)-1-(3-morpholin-4-ylpropyl)-4,5,6,7-tetrahydro-1H-pyrazolo[4,3-c]pyridin-3-yl]phenyl}ethynyl)-2-cyclopropyl-1,2,3,4-tetrahydroisoquinoline] the IC50 was 200 nM. For CS(=O)(=O)N1CCc2c(c(-c3ccc(Cl)c(C#Cc4ccc(CNCc5ccc(Cl)cc5)cc4)c3)nn2CCCN2CC[C@@H](O)C2)C1 [Example 383, (3R)-1-{3-[3-(4-Chloro-3-{[4-({[(4-chlorophenyl)methyl]amino}methyl)phenyl]ethynyl}phenyl)-5-(methylsulfonyl)-4,5,6,7-tetrahydro-1H-pyrazolo[4,3-c]pyridin-1-yl]propyl}pyrrolidin-3-ol], the IC50 was 120 nM. NC(=O)N1CCc2c(c(-c3ccc(Cl)c(C#Cc4cccc(CNCc5cccc(Cl)c5)c4)c3)nn2CCCN2CCSCC2)C1 [Example 514, 3-(4-Chloro-3-{[3-({[(3-chlorophenyl)methyl]amino}methyl)phenyl]ethynyl}phenyl)-1-(3-thiomorpholin-4-ylpropyl)-1,4,6,7-tetrahydro-5H-pyrazolo[4,3-c]pyridine-5-carboxamide] gave an IC50 of 140 nM. In the case of CS(=O)(=O)N1CCc2c(c(-c3ccc(Cl)c(C#Cc4cccc(Cl)c4)c3)nn2CCCN2CCOCC2)C1 [Example 25, 3-[4-Chloro-3-(3-chloro-phenylethynyl)-phenyl]-5-methanesulfonyl-1-(3-morpholin-4-yl-propyl)-4,5,6,7-tetrahydro-1H-pyrazolo[4,3-c]pyridine], the IC50 is reported as 700 nM.
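Also: Baculovirus-expressed CatS in pH 5.0 sodium acetate buffer with DTT and NaCl, fluorescence read each minute over 20 min, inhibition derived from rate slope.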
